Experimental data as given in patent publication EP4813403A1, “USE OF GLP-1R/GIPR DOUBLE-TARGET AGONIST IN PREPARING ANIMAL DRUG” (Hangzhou Zhongmeihuadong Pharmaceutical Co., Ltd., priority 2023, dated 2025).

Columns and labels:
[1] = Pharmacokinetics following single administration in SD rats; settings: male, Sprague-Dawley, rat, in vivo, sc
Experimental: The compound was administrated to male SD rats (230-268 g, n=3) at a dose of 50.0 nmol/kg (s.c.) or 25.0 nmol/kg (i.v.). […] 30.0 μL of thawed plasma sample was taken. 150 μL of acetonitrile solution (containing 5 ng·mL^-1 Verapamil , 50 ng·mL^-1 Glibenclamide, 200 ng·mL^-1 Tolbutamide and 200 ng·mL^-1 Diclofenac) were added to precipitate protein. The mixture was vortexed for 5 minutes, and centrifuged at 3700 rpm for 8 minutes. 70.0 μL of the supernatant was taken, into which 70.0 μL of 0.5% aqueous formic acid solution was added. The mixture was vortexed for 5 minutes. 15 μL of the mixture solution was sampled and injected into the LC-MS/MS to determine the drug concentration in plasma. 20.0 μL of thawed plasma sample was taken. 60 μL of acetonitrile solution (containing 5 ng·mL^-1 Verapamil, 50 ng·mL^-1 Glibenclamide, 200 ng·mL^-1 Tolbutamide and 200 ng·mL^-1 Diclofenac) were added to precipitate protein. […] The mixture was vortexed for 10 minutes. 10.0 μL of the mixture solution was sampled and injected into the LC-MS/MS to determine the drug concentration in plasma. 30.0 μL of thawed plasma sample was taken. 150 μL of acetonitrile solution (containing 5 ng·mL^-1 Verapamil, 50 ng·mL^-1 Glibenclamide, 200 ng·mL^-1 Tolbutamide and 200 ng·mL^-1 Diclofenac) were added to precipitate protein. The mixture was vortexed for 5 minutes, and centrifuged at 3700 rpm for 8 minutes. 70.0 μL of the supernatant was taken, into which 70.0 μL of 0.5% aqueous formic acid solution was added. The mixture was vortexed for 5 minutes. 10.0 μL of the mixture solution was sampled and injected into the LC-MS/MS to determine the drug concentration in plasma. […] Table 5 Pharmacokinetic Parameters after Subcutaneous Injection of Different Polypeptide Compounds to Rats

db/db mice = experiment: Pharmacodynamic effects in db/db mice, single subcutaneous administration (blood glucose); assay type: in vivo; settings: single s.c. 10 nmol/kg
Experimental: In this study, 8-9 week old male db/db mice were used. The db/db mice were placed in an individual ventilated cage (IVC) facility with a controlled temperature (20-26°C) and humidity (40-70%) and a controlled 12h:12 h light-dark cycle. The mice can receive food and water ad libitum. Blood was sampled at the tail tip, and the random base blood glucose was measured by a Roche blood glucose meter. The mice were randomly divided into groups according to the random initial fasting blood glucose and initial body weight (n=6/group), and each group had similar body weight and blood glucose.
After a single subcutaneous administration, the random base blood glucoses were recorded at the set time point (0 to 120 hours, the recording of the random base blood glucose was stopped until there was no difference between the random base blood glucose of the compound and that of the vehicle group), and the daily body weight and food intake were also recorded. The data results were statistically analyzed using GraphPad Prism8, and the statistical differences among the groups were analyzed following a T-Test. Significant differences were identified at p<0.05.
Hypoglycemic Duration: the longest time during which the random base blood glucose of the compound has a significant difference (p<0.05) vs. the vehicle group. Table 13. Hypoglycemic Duration of the Compounds

[2] = Pharmacokinetics in C57 mice; settings: C57, mouse, in vivo
Experimental: After subcutaneous or intravenous administration to C57 mice, plasma was collected and the drug concentration in plasma was determined to illustrate the in vivo pharmacokinetic properties of the compound according to the present invention. […] 20.0 µL of thawed plasma sample was taken. 20 µL of 50% aqueous methanol solution (containing 100 ng mL^-1 Tolbutamide) and 60 µL of acetonitrile were added sequentially to precipitate protein. The mixture was vortexed for 5 minutes, and centrifuged at 4815 rpm for 8 minutes. 50.0 µL of the supernatant was taken, into which 50.0 µL of 0.5% aqueous formic acid solution was added. The mixture was vortexed for 5 minutes. 50 µL of the mixture solution was sampled and injected into the LC-MS/MS to determine the drug concentration in plasma. Based on the drug concentration in plasma of the compounds in C57 mice, the pharmacokinetic parameters were calculated by applying the software Winnolin 8.3 in a non-compartmental model, and the results were shown in Table 7 and Table 8 below. Table 7 Average Pharmacokinetic Parameters after Single Subcutaneous Administration to Mice

human GLP-1R = human GLP-1R (Homo sapiens, UniProt P43220); experiment: In vitro binding activity to human GLP-1 receptor ([125I]GLP-1 displacement, crude cell membranes); set-up: expressed in transfected cells; settings: ratio of the Ki value of the endogenous ligand to the Ki value of the test compound; larger ratio = stronger binding
Experimental: 89 µL of membrane dissolved in binding buffer (50 mM Hepes, pH 7.4, 5 mM MgCl2 , 5 mM EDTA, 0.005% TWEEN, 0.005% HSA) was transferred to a 96-well test plate (5 µg/well). The compound was serially diluted in DMSO, and then, 1 µL of the diluted compound or 100% DMSO was added to the test plate containing the membrane solution. 10 µL of [^125I] […] The test plate was left at room temperature for 90 minutes. The membrane complexes were harvested into a GF/B plate pre-coated with 0.5% PEI by using a Cell Harvester, and washed for 3 times with 500 µL of pre-cooled elution buffer (50 mM Hepes, pH 7.4, 500 mM NaCl) at 4°C. After drying at 37°C for 2 hours, 50 µL of scintillation fluid was added to each well. The plate was read with a MicroBeta2 scintillation counter after sealing and settling for at least 1 hour so as to determine the membrane bound radioligand level.
The IC50 concentration was converted to Ki (Ki was the inhibition constant) using the Cheng-Prusoff equation.

[3] = Group 2, longest time with p<0.05 vs. vehicle

human GLP-1R, sequence (P43220 24-463): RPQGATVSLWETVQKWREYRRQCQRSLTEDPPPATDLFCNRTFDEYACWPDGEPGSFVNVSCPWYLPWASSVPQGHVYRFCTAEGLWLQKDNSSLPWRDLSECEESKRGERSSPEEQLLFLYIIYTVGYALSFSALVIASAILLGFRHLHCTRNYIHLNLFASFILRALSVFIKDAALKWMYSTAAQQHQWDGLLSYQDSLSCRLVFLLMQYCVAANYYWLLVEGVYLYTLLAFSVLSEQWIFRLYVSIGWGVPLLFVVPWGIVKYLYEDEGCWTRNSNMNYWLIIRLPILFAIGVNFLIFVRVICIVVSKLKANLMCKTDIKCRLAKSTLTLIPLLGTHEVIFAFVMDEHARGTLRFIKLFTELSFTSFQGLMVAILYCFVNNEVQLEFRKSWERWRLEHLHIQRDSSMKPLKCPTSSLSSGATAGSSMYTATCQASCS

CC[C@H](C)[C@H](NC(=O)C(C)(C)NC(=O)[C@H](Cc1ccc(O)cc1)NC(=O)[C@H](CC(=O)O)NC(=O)[C@H](CO)NC(=O)[C@@H](NC(=O)C(C)(Cc1ccccc1)NC(=O)[C@@H](NC(=O)CNC(=O)[C@H](CCC(=O)O)NC(=O)C(C)(C)NC(=O)[C@@H](N)Cc1ccc(O)cc1)[C@@H](C)O)[C@@H](C)O)C(=O)NC(C)(C)C(=O)N[C@@H](CC(C)C)C(=O)N[C@@H](CC(=O)O)C(=O)N[C@@H](CCCCN)C(=O)N[C@@H](CCC(N)=O)C(=O)N[C@@H](C)C(=O)N[C@@H](CCC(N)=O)C(=O)N[C@@H](C)C(=O)N[C@@H](CCC(=O)O)C(=O)N[C@@H](Cc1ccccc1)C(=O)N[C@H](C(=O)N[C@@H](CCCCNC(=O)COCCOCCNC(=O)COCCOCCNC(=O)CC[C@H](NC(=O)CCCCCCCCCCCCCCCCCCCCC(=O)O)C(=O)O)C(=O)N[C@@H](Cc1c[nH]c2ccccc12)C(=O)N[C@@H](CC(C)C)C(=O)N[C@@H](CC(C)C)C(=O)N[C@@H](CCCCN)C(=O)NCC(=O)NCC(=O)N1CCC[C@H]1C(=O)N[C@@H](CO)C(=O)N[C@@H](CO)C(=O)NCC(=O)N[C@@H](C)C(=O)N1CCC[C@H]1C(=O)N1CCC[C@H]1C(=O)N1CCC[C@H]1C(=O)N[C@@H](CO)C(=O)N[C@@H](CCCCN)C(N)=O)C(C)C (some centres unmarked) [Compound P014]
Tmax [1]: 24 h
half-life [1]: 14.8 ± 0.503 h
inhibition of the blood glucose AUC, times of that of P001 (db/db mice): 2.6 times
inhibition of the blood glucose AUC, times of that of Tirzepatide (db/db mice): 1.7 times
Hypoglycemic Duration (db/db mice; Group 1, longest time with p<0.05 vs. vehicle): 104 h
AUC(0-inf) ([2]; iv): 18200 ng·h/mL
AUC(0-t) ([2]; iv): 17500 ng·h/mL
C0 ([2]; iv): 1940 ng/mL
half-life ([2]; iv): 17.2 h
MRT ([2]; iv, MRT(0-t)): 15.7 h
MRT ([2]; iv, MRT(0-∞)): 19.2 h
AUC(0-inf) ([2]; sc): 30200 ng·h/mL
AUC(0-t) ([2]; sc): 27300 ng·h/mL
Cmax ([2]; sc): 852 ng/mL
Tmax ([2]; sc): 6 h
half-life ([2]; sc): 20.3 h
MRT ([2]; sc, MRT(0-t)): 22.9 h
MRT ([2]; sc, MRT(0-∞)): 30.3 h
GLP-1R Ki ratio (human GLP-1R): 0.37

CC[C@H](C)[C@H](NC(=O)C(C)(C)NC(=O)[C@H](Cc1ccc(O)cc1)NC(=O)[C@H](CC(=O)O)NC(=O)[C@H](CO)NC(=O)[C@@H](NC(=O)C(C)(Cc1ccccc1)NC(=O)[C@@H](NC(=O)CNC(=O)[C@H](CCC(=O)O)NC(=O)C(C)(C)NC(=O)[C@@H](N)Cc1ccc(O)cc1)[C@@H](C)O)[C@@H](C)O)C(=O)NC(C)(C)C(=O)N[C@@H](CC(C)C)C(=O)N[C@@H](CC(=O)O)C(=O)N[C@@H](CCCCN)C(=O)N[C@@H](CCC(N)=O)C(=O)N[C@@H](C)C(=O)N[C@@H](CCC(N)=O)C(=O)N[C@@H](C)C(=O)N[C@@H](CCC(=O)O)C(=O)N[C@@H](Cc1ccccc1)C(=O)N[C@H](C(=O)N[C@@H](CCCCN)C(=O)N[C@@H](Cc1c[nH]c2ccccc12)C(=O)N[C@@H](CC(C)C)C(=O)N[C@@H](CC(C)C)C(=O)N[C@@H](CCCCNC(=O)COCCOCCNC(=O)COCCOCCNC(=O)COCCOCCNC(=O)CC[C@H](NC(=O)CCCCCCCCCCCCCCCCCCCCC(=O)O)C(=O)O)C(=O)NCC(=O)NCC(=O)N1CCC[C@H]1C(=O)N[C@@H](CO)C(=O)N[C@@H](CO)C(=O)NCC(=O)N[C@@H](C)C(=O)N1CCC[C@H]1C(=O)N1CCC[C@H]1C(=O)N1CCC[C@H]1C(=O)N[C@@H](CO)C(=O)N[C@@H](CCCCN)C(N)=O)C(C)C (some centres unmarked) [Compound P020]
Tmax [1]: 24 h
half-life [1]: 17.9 ± 0.57 h
inhibition of the blood glucose AUC, times of that of Tirzepatide (db/db mice): 2.0 times
Hypoglycemic Duration (db/db mice; [3]): 104 h
AUC(0-inf) ([2]; iv): 17400 ng·h/mL
AUC(0-t) ([2]; iv): 16300 ng·h/mL
C0 ([2]; iv): 1820 ng/mL
half-life ([2]; iv): 16.7 h
MRT ([2]; iv, MRT(0-t)): 16.8 h
MRT ([2]; iv, MRT(0-∞)): 21.8 h
AUC(0-inf) ([2]; sc): 21100 ng·h/mL
AUC(0-t) ([2]; sc): 19000 ng·h/mL
Cmax ([2]; sc): 836 ng/mL
Tmax ([2]; sc): 4.25 h
half-life ([2]; sc): 19.9 h
MRT ([2]; sc, MRT(0-t)): 21.8 h
MRT ([2]; sc, MRT(0-∞)): 29.4 h
GLP-1R Ki ratio (human GLP-1R): 1.36

CC[C@H](C)[C@H](NC(=O)C(C)(C)NC(=O)[C@H](Cc1ccc(O)cc1)NC(=O)[C@H](CC(=O)O)NC(=O)[C@H](CO)NC(=O)[C@@H](NC(=O)C(C)(Cc1ccccc1)NC(=O)[C@@H](NC(=O)CNC(=O)[C@H](CCC(=O)O)NC(=O)C(C)(C)NC(=O)[C@@H](N)Cc1ccc(O)cc1)[C@@H](C)O)[C@@H](C)O)C(=O)NC(C)(C)C(=O)N[C@@H](CC(C)C)C(=O)N[C@@H](CC(=O)O)C(=O)N[C@@H](CCCCN)C(=O)N[C@@H](CCC(N)=O)C(=O)N[C@@H](C)C(=O)N[C@@H](CCC(N)=O)C(=O)N[C@@H](C)C(=O)N[C@@H](CCC(=O)O)C(=O)N[C@@H](Cc1ccccc1)C(=O)N[C@H](C(=O)N[C@@H](CCCCN)C(=O)N[C@@H](Cc1c[nH]c2ccccc12)C(=O)N[C@@H](CC(C)C)C(=O)N[C@@H](CC(C)C)C(=O)N[C@@H](CCCCNC(=O)COCCOCCNC(=O)COCCOCCNC(=O)CC[C@H](NC(=O)CCCCCCCCCCCCCCCCCCCCC(=O)O)C(=O)O)C(=O)NCC(=O)NCC(=O)N1CCC[C@H]1C(=O)N[C@@H](CO)C(=O)N[C@@H](CO)C(=O)NCC(=O)N[C@@H](C)C(=O)N1CCC[C@H]1C(=O)N1CCC[C@H]1C(=O)N1CCC[C@H]1C(=O)N[C@@H](CO)C(=O)N[C@@H](CCCCN)C(N)=O)C(C)C (some centres unmarked) [Compound P017]
Tmax [1]: 24 h
half-life [1]: 18.7 ± 2.69 h
Hypoglycemic Duration (db/db mice; [3]): 72 h
GLP-1R Ki ratio (human GLP-1R): 0.56
